*1 amine or outer side, *2 acyl side, *3 side chain or, on linkers, in order; H or OH if unused. Where a SMILES comes first, the peptide text is derived from it. Bridges are numbered along the chain shown (N, C = ends). [ ]: non-standard residue; d: D form. Abu(4-yl) = O=C([C@H](CC[*:3])N[*:1])[*:2]; 2Nal = N[C@@H](Cc1ccc2ccccc2c1)C(=O)O; AEF = NCCOc1ccc(C[C@H](N)C(=O)O)cc1; Pen = CC(C)(S)[C@H](N)C(=O)O; αMeK = C[C@](N)(CCCCN)C(=O)O
How the values were obtained:
[1] = Half life in simulated intestinal fluid at 20 uM by LC-MS/MS analysis; type: ADME
[2] = target: T1, Interleukin-23 receptor (Homo sapiens, UniProt Q5VWK5); assay: Inhibition of interleukin-23 binding to human interleukin-23 receptor incubated for 2 hrs by competitive binding ELISA
T1 sequence (Q5VWK5 whole entry): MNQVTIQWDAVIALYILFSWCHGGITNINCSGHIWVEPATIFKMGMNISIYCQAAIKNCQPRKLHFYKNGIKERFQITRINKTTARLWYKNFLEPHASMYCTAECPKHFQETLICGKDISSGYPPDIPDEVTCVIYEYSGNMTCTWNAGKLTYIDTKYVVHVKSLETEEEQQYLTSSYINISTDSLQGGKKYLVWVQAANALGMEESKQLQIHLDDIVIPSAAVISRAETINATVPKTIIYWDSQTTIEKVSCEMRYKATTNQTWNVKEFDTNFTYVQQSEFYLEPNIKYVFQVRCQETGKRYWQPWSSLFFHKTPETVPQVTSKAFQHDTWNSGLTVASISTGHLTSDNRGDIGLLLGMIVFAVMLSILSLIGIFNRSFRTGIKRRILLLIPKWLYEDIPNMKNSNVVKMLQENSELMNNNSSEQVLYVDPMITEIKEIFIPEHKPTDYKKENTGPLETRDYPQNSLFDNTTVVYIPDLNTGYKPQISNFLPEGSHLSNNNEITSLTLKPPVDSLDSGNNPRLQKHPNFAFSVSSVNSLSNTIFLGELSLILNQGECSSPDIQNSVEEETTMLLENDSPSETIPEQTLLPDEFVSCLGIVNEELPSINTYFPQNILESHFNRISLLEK

[3] = target: T1, Interleukin-23 receptor; assay: Inhibition of interleukin-23 receptor in human DB cells assessed as reduction in IL-23-stimulated STAT3 phosphorylation incubated for 30 mins by HTRF assay; type: cell-based
[4] = Inhibition of interleukin-23 binding to rat interleukin-23 receptor incubated for 2 hrs by competitive binding ELISA

| Structure (SMILES) | half-life at 20 µM [1] [min] | IC50 [2] [nM] | IC50 [3] [nM] | IC50 [4] [nM] |
| --- | --- | --- | --- | --- |
| CC(=O)N[C@H](C(=O)N[C@@H](CCC(N)=O)C(=O)N[C@H](C(=O)N[C@@H](Cc1c[nH]c2ccccc12)C(=O)N[C@@H](CCC(N)=O)C(=O)N[C@H](C(=O)N[C@@H](Cc1ccc(O)cc1)C(=O)N[C@@H](Cc1ccc2ccccc2c1)C(=O)N[C@@](C)(CCCN)C(=O)N[C@@H](CCC(=O)O)C(=O)N[C@@H](CC(N)=O)C(=O)NCC(N)=O)C(C)(C)S)[C@@H](C)O)C(C)(C)S | 180 to 360 | 25 to 100 | 10 to 25 | 100 to 1000 |
| CC(=O)N[C@H](C(=O)N[C@@H](CCC(N)=O)C(=O)N[C@H](C(=O)N[C@@H](Cc1c[nH]c2ccccc12)C(=O)N[C@@H](CCC(N)=O)C(=O)N[C@H](C(=O)N[C@@H](Cc1ccc2ccccc2c1)C(=O)N[C@@H](Cc1ccc2ccccc2c1)C(=O)N[C@@](C)(CCCCN)C(=O)N[C@@H](CCC(=O)O)C(=O)N[C@@H](CC(N)=O)C(=O)NCC(N)=O)C(C)(C)S)[C@@H](C)O)C(C)(C)S (Ac-[Pen]QTWQ[Pen][2Nal][2Nal][αMeK]ENG-NH2) | 180 to 360 | 100 to 1000 | 10 to 25 | 100 to 1000 |
| CC(=O)N[C@@H](CS)C(=O)N[C@@H](CCC(N)=O)C(=O)N[C@H](C(=O)N[C@@H](Cc1c[nH]c2ccccc12)C(=O)N[C@@H](CCC(N)=O)C(=O)N[C@H](C(=O)N[C@@H](Cc1ccc(O)cc1)C(=O)N[C@@H](Cc1c[nH]c2ccccc12)C(=O)N[C@@](C)(CC(C)C)C(=O)N[C@@H](CCC(=O)O)C(=O)N[C@@H](CC(N)=O)C(=O)NCC(N)=O)C(C)(C)S)[C@@H](C)O | < 60 | 100 to 1000 |  | 100 to 1000 |
| COc1ccc(C[C@H](NC(=O)[C@@H](NC(=O)[C@H](CCC(N)=O)NC(=O)[C@H](Cc2c[nH]c3ccccc23)NC(=O)[C@@H](NC(=O)[C@H](CCC(N)=O)NC(=O)[C@@H](NC(C)=O)C(C)(C)S)[C@@H](C)O)C(C)(C)S)C(=O)N[C@@H](Cc2cccc3ccccc23)C(=O)N[C@@](C)(CCCCN)C(=O)N[C@@H](CCCCNC(C)=O)C(=O)N[C@@H](CC(N)=O)C(=O)NCC(N)=O)cc1 | > 360 | 25 to 100 | 25 to 100 | 100 to 1000 |
| CC(=O)N[C@H]1CCSC[C@@H](C(=O)N[C@@H](Cc2ccc(O)cc2)C(=O)N[C@@H](Cc2c[nH]c3ccccc23)C(=O)N[C@@](C)(CC(C)C)C(=O)N[C@@H](CCC(=O)O)C(=O)N[C@@H](CC(N)=O)C(=O)NCC(N)=O)NC(=O)[C@H](CCC(N)=O)NC(=O)[C@H](Cc2c[nH]c3ccccc23)NC(=O)[C@H]([C@@H](C)O)NC(=O)[C@H](CCC(N)=O)NC1=O | < 60 | 10 to 25 | < 10 | 25 to 100 |
| CC(=O)NCCCC[C@H](NC(=O)[C@](C)(CCCCN)NC(=O)[C@H](Cc1ccc2ccccc2c1)NC(=O)[C@H](Cc1ccc2ccccc2c1)NC(=O)[C@@H]1CSCC[C@H](NC(C)=O)C(=O)N[C@@H](CCC(N)=O)C(=O)N[C@@H]([C@@H](C)O)C(=O)N[C@@H](Cc2c[nH]c3ccccc23)C(=O)N[C@@H](CCC(N)=O)C(=O)N1)C(=O)N[C@@H](CC(N)=O)C(=O)NCC(N)=O | 180 to 360 | 25 to 100 | 10 to 25 | 25 to 100 |
| COc1ccc(C[C@H](NC(=O)[C@@H]2CSCC[C@H](NC(C)=O)C(=O)N[C@@H](CCC(N)=O)C(=O)N[C@@H]([C@@H](C)O)C(=O)N[C@@H](Cc3c[nH]c4ccccc34)C(=O)N[C@@H](CCC(N)=O)C(=O)N2)C(=O)N[C@@H](Cc2ccc3ccccc3c2)C(=O)N[C@H](CC(N)=O)C(=O)N[C@@H](CCCCNC(C)=O)C(=O)N[C@@H](CC(N)=O)C(=O)NCC(N)=O)cc1 | > 360 | 25 to 100 | 25 to 100 | 100 to 1000 |
| CC(=O)NCCCC[C@H](NC(=O)[C@](C)(CCCN)NC(=O)[C@H](Cc1ccc2ccccc2c1)NC(=O)[C@H](Cc1ccc2ccccc2c1)NC(=O)[C@@H]1CSCC[C@H](NC(C)=O)C(=O)N[C@@H](CCC(N)=O)C(=O)N[C@@H]([C@@H](C)O)C(=O)N[C@@H](Cc2c[nH]c3ccccc23)C(=O)N[C@@H](CCC(N)=O)C(=O)N1)C(=O)N[C@@H](CC(N)=O)C(=O)NCC(N)=O | 120 to 180 | 25 to 100 | < 10 | 100 to 1000 |
| COc1ccc(C[C@H](NC(=O)[C@@H](NC(=O)[C@H](CCC(N)=O)NC(=O)[C@H](Cc2c[nH]c3ccccc23)NC(=O)[C@@H](NC(=O)[C@H](CCC(N)=O)NC(=O)[C@@H](NC(C)=O)C(C)(C)S)[C@@H](C)O)C(C)(C)S)C(=O)N[C@@H](Cc2c[nH]c3ccccc23)C(=O)N[C@@](C)(CCCCN)C(=O)N[C@@H](CCCCNC(C)=O)C(=O)N[C@@H](CC(N)=O)C(=O)NCC(N)=O)cc1 | > 360 | 25 to 100 | 10 to 25 | 25 to 100 |
| CC(=O)NCCCC[C@](C)(NC(=O)[C@H](Cc1ccc2ccccc2c1)NC(=O)[C@H](Cc1ccc(OCCNC(C)=O)cc1)NC(=O)[C@@H]1CSCC[C@H](NC(C)=O)C(=O)N[C@@H](CCC(N)=O)C(=O)N[C@@H]([C@@H](C)O)C(=O)N[C@@H](Cc2c[nH]c3ccccc23)C(=O)N[C@@H](CCC(N)=O)C(=O)N1)C(=O)N[C@@H](CCC(=O)O)C(=O)N[C@@H](CC(N)=O)C(=O)N[C@@H](CCC(N)=O)C(N)=O (Ac-[Abu(4-yl)]QTWQC[AEF](Ac)[2Nal][αMeK](Ac)ENQ-NH2; thioether 1-6) |  | < 10 | < 10 | < 10 |
| CC(=O)N[C@H](C(=O)N[C@@H](CCC(N)=O)C(=O)N[C@H](C(=O)N[C@@H](Cc1c[nH]c2ccccc12)C(=O)N[C@@H](CCC(N)=O)C(=O)N[C@H](C(=O)N[C@@H](Cc1ccc(O)cc1)C(=O)N[C@@H](Cc1ccc2ccccc2c1)C(=O)N[C@@](C)(CCCCN)C(=O)N[C@@H](CCC(=O)O)C(=O)N[C@@H](CC(N)=O)C(=O)NCC(N)=O)C(C)(C)S)[C@@H](C)O)C(C)(C)S | 180 to 360 | 25 to 100 | < 10 | 100 to 1000 |
| COc1ccc(C[C@H](NC(=O)[C@@H]2CSCC[C@H](NC(C)=O)C(=O)N[C@@H](CCC(N)=O)C(=O)N[C@@H]([C@@H](C)O)C(=O)N[C@@H](Cc3c[nH]c4ccccc34)C(=O)N[C@@H](CCC(N)=O)C(=O)N2)C(=O)N[C@@H](Cc2ccc3ccccc3c2)C(=O)NC(C)(C)C(=O)N[C@@H](CCCCNC(C)=O)C(=O)N[C@@H](CC(N)=O)C(=O)NCC(N)=O)cc1 | > 360 | 10 to 25 | < 10 | 25 to 100 |
| CC(=O)N[C@@H](CS)C(=O)N[C@@H](C)C(=O)N[C@@H](CC(=O)O)C(=O)N[C@@H](Cc1c[nH]c2ccccc12)C(=O)N[C@H](C(=O)N[C@H](C(=O)N[C@@H](Cc1ccc(O)cc1)C(=O)N[C@@H](Cc1c[nH]c2ccccc12)C(=O)N[C@@H](Cc1cnc[nH]1)C(=O)N[C@H](C(=O)N[C@@H](Cc1ccccc1)C(=O)NCC(=O)NCCOCC(=O)N[C@H](CCCCN)C(N)=O)[C@@H](C)O)C(C)(C)S)C(C)C |  | > 30000 | 100 to 1000 | 1000 to 10000 |
| CC(=O)N[C@H](C(=O)N[C@@H](CCCNC(=N)N)C(=O)N[C@H](C(=O)N[C@@H](Cc1c[nH]c2ccccc12)C(=O)N[C@@H](CCC(N)=O)C(=O)N[C@H](C(=O)N[C@@H](Cc1ccc(O)cc1)C(=O)N[C@@H](Cc1c[nH]c2ccccc12)C(=O)N[C@@H](CCCNC(=N)N)C(=O)N[C@@H](CCCCN)C(=O)N[C@@H](Cc1ccccc1)C(=O)NCC(=O)NCCOCC(=O)N[C@H](CCCCN)C(N)=O)C(C)(C)S)[C@@H](C)O)C(C)(C)S |  | 100 to 1000 | 25 to 100 | 100 to 1000 |
| CC(=O)N[C@H](C(=O)N[C@@H](CCCNC(=N)N)C(=O)N[C@H](C(=O)N[C@@H](Cc1c[nH]c2ccccc12)C(=O)N[C@@H](CCC(N)=O)C(=O)N[C@@H](CS)C(=O)N[C@@H](Cc1ccc(O)cc1)C(=O)N[C@@H](Cc1c[nH]c2ccccc12)C(=O)N[C@@H](CCCNC(=N)N)C(=O)N[C@@H](CCCCN)C(=O)N[C@@H](Cc1ccccc1)C(=O)NCC(=O)NCCOCC(=O)N[C@H](CCCCN)C(N)=O)[C@@H](C)O)C(C)(C)S |  | 100 to 1000 | 100 to 1000 | 100 to 1000 |
| COc1ccc(C[C@H](NC(=O)[C@@H](NC(=O)[C@H](CCC(N)=O)NC(=O)[C@H](Cc2c[nH]c3ccccc23)NC(=O)[C@@H](NC(=O)[C@H](CCC(N)=O)NC(=O)[C@@H](NC(=O)CC(C)C)C(C)(C)S)[C@@H](C)O)C(C)(C)S)C(=O)N[C@@H](Cc2ccc3ccccc3c2)C(=O)N[C@@](C)(CCCCN)C(=O)N[C@@H](CCCCNC(C)=O)C(=O)N[C@@H](CC(N)=O)C(=O)NCC(N)=O)cc1 |  | 25 to 100 | 10 to 25 | 25 to 100 |

Source: ChEMBL document CHEMBL4417631, “Oral peptide inhibitors of interleukin-23 receptor and their use to treat inflammatory bowel diseases” (2017)
